Measured values reported in PubChem BioAssay AID2060501 (Molecular Pharmacology Branch, DTP, NCI, 2025).

Tested on: 282377-053-R-J1-PDC complex spheroids, viability
Test: Anticancer human tumor 282377-053-R-J1-PDC patient-derived colon adenocarcinoma cell line growth inhibition [GQUAD]
Settings: for IC50: curve of first compound; for viability, T/C: stronger effect = lower value
Procedure, shortened: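 Tumor cells were grown as complex spheroids with HUVEC endothelial cells and mesenchymal stem cells as stroma. G-quadruplex stabilizers were combined with targeted agents over half-log dilutions from near the clinical Cmax, or from 10 microM.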

[1] = second compound 0.0316 µM, first compound 0.0316 µM
[2] = second compound 0.0316 µM, first compound 0.316 µM
[3] = second compound 0.1 µM, first compound 0.0316 µM
[4] = second compound 0.1 µM, first compound 0.316 µM
[5] = second compound 0.316 µM, first compound 0.0316 µM
[6] = second compound 0.316 µM, first compound 0.316 µM
[7] = second compound 1 µM, first compound 0.0316 µM
[8] = second compound 1 µM, first compound 0.316 µM
[9] = second compound 3.16 µM, first compound 0.0316 µM
[10] = second compound 3.16 µM, first compound 0.316 µM
[11] = second compound 10 µM, first compound 0.0316 µM
[12] = second compound 10 µM, first compound 0.316 µM
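Further: spheroids exposed to compounds for 7 days before readout.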
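Wherever viability, T/C is given: percent of vehicle DMSO control viability with 100% = untreated-like growth.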

In the case of `CCc1c2c(nc3ccc(O)cc13)-c1cc3c(c(=O)n1C2)COC(=O)[C@]3(O)CC` + Cc1[nH]c2ccc(F)cc2c1-c1nc2c3cccnc3c3ncccc3c2[nH]1, the IC50 (second compound 0.0316 µM) is reported as 27.8 nM, the IC50 (second compound 0.1 µM) is reported as 26.7 nM and the IC50 (second compound 0.316 µM) is reported as 35.2 nM. The IC50 (second compound 1 µM) was 20.5 nM, the IC50 (second compound 3.16 µM) was 3.28 nM and the IC50 (second compound 10 µM) was < 0.999 nM. It also gave a viability, T/C (second compound 0.0316 µM, first compound 0.000999 µM) of 125%, a viability, T/C (second compound 0.0316 µM, first compound 0.00316 µM) of 79.7% and a viability, T/C (second compound 0.0316 µM, first compound 0.00999 µM) of 65.6%. It also gave a viability, T/C [1] of 54.4%, a viability, T/C (second compound 0.0316 µM, first compound 0.0999 µM) of 37.9% and a viability, T/C [2] of 29.4%. It also gave a viability, T/C (second compound 0.1 µM, first compound 0.000999 µM) of 112%, a viability, T/C (second compound 0.1 µM, first compound 0.00316 µM) of 99.3% and a viability, T/C (second compound 0.1 µM, first compound 0.00999 µM) of 64%. The viability, T/C [3] was 49.8%, the viability, T/C (second compound 0.1 µM, first compound 0.0999 µM) was 34.2% and the viability, T/C [4] was 25.5%. For the same compound, the viability, T/C (second compound 0.316 µM, first compound 0.000999 µM) was 107%, the viability, T/C (second compound 0.316 µM, first compound 0.00316 µM) was 83.3% and the viability, T/C (second compound 0.316 µM, first compound 0.00999 µM) was 64.4%. For the same compound, the viability, T/C [5] was 47.9%, the viability, T/C (second compound 0.316 µM, first compound 0.0999 µM) was 46.8% and the viability, T/C [6] was 26.9%. For the same compound, the viability, T/C (second compound 1 µM, first compound 0.000999 µM) was 87.2%, the viability, T/C (second compound 1 µM, first compound 0.00316 µM) was 77.6% and the viability, T/C (second compound 1 µM, first compound 0.00999 µM) was 52.6%. For the same compound, the viability, T/C [7] was 47%, the viability, T/C (second compound 1 µM, first compound 0.0999 µM) was 36.6% and the viability, T/C [8] was 25.9%. The viability, T/C (second compound 3.16 µM, first compound 0.000999 µM) was 71.5%, the viability, T/C (second compound 3.16 µM, first compound 0.00316 µM) was 51% and the viability, T/C (second compound 3.16 µM, first compound 0.00999 µM) was 33.4%. The viability, T/C [9] was 25.9%, the viability, T/C (second compound 3.16 µM, first compound 0.0999 µM) was 17.1% and the viability, T/C [10] was 11.8%. For the same compound, the viability, T/C (second compound 10 µM, first compound 0.000999 µM) was 21.1%, the viability, T/C (second compound 10 µM, first compound 0.00316 µM) was 29.2% and the viability, T/C (second compound 10 µM, first compound 0.00999 µM) was 12.5%. For the same compound, the viability, T/C [11] was 8.86%, the viability, T/C (second compound 10 µM, first compound 0.0999 µM) was 9.45% and the viability, T/C [12] was 8.4%.

With `COc1cc(C2c3cc4c(cc3C(OC3OC5COC(C)OC5C(O)C3O)C3COC(=O)C23)OCO4)cc(OC)c1O` (centres undefined) + Cc1[nH]c2ccc(F)cc2c1-c1nc2c3cccnc3c3ncccc3c2[nH]1 the IC50 (second compound 0.0316 µM) was > 10000 nM, the IC50 (second compound 0.1 µM) was > 10000 nM and the IC50 (second compound 0.316 µM) was > 10000 nM. The IC50 (second compound 1 µM) was > 10000 nM, the IC50 (second compound 3.16 µM) was 1230 nM and the IC50 (second compound 10 µM) was 384 nM. The viability, T/C [1] was 99.9%, the viability, T/C (second compound 0.0316 µM, first compound 0.1 µM) was 102% and the viability, T/C [2] was 104%. It also gave a viability, T/C (second compound 0.0316 µM, first compound 1 µM) of 89%, a viability, T/C (second compound 0.0316 µM, first compound 3.16 µM) of 66.5% and a viability, T/C (second compound 0.0316 µM, first compound 10 µM) of 62.6%. It also gave a viability, T/C [3] of 94.3%, a viability, T/C (second compound 0.1 µM, first compound 0.1 µM) of 108% and a viability, T/C [4] of 83.5%. The viability, T/C (second compound 0.1 µM, first compound 1 µM) was 98.2%, the viability, T/C (second compound 0.1 µM, first compound 3.16 µM) was 76.4% and the viability, T/C (second compound 0.1 µM, first compound 10 µM) was 70.1%. It also gave a viability, T/C [5] of 102%, a viability, T/C (second compound 0.316 µM, first compound 0.1 µM) of 117% and a viability, T/C [6] of 96.2%. It also gave a viability, T/C (second compound 0.316 µM, first compound 1 µM) of 105%, a viability, T/C (second compound 0.316 µM, first compound 3.16 µM) of 76.9% and a viability, T/C (second compound 0.316 µM, first compound 10 µM) of 54.2%. It also gave a viability, T/C [7] of 113%, a viability, T/C (second compound 1 µM, first compound 0.1 µM) of 95.5% and a viability, T/C [8] of 95.2%. It also gave a viability, T/C (second compound 1 µM, first compound 1 µM) of 94.1%, a viability, T/C (second compound 1 µM, first compound 3.16 µM) of 72% and a viability, T/C (second compound 1 µM, first compound 10 µM) of 54.4%. For the same compound, the viability, T/C [9] was 72.5%, the viability, T/C (second compound 3.16 µM, first compound 0.1 µM) was 85.6% and the viability, T/C [10] was 73.5%. It also gave a viability, T/C (second compound 3.16 µM, first compound 1 µM) of 56%, a viability, T/C (second compound 3.16 µM, first compound 3.16 µM) of 24.8% and a viability, T/C (second compound 3.16 µM, first compound 10 µM) of 23.2%. The viability, T/C [11] was 52.7%, the viability, T/C (second compound 10 µM, first compound 0.1 µM) was 44% and the viability, T/C [12] was 63.8%. For the same compound, the viability, T/C (second compound 10 µM, first compound 1 µM) was 32.7%, the viability, T/C (second compound 10 µM, first compound 3.16 µM) was 16.1% and the viability, T/C (second compound 10 µM, first compound 10 µM) was 17.5%.
